Measured values from patent US20210137549A1, “DEVICE FOR CHEMICALLY ASSISTED DISSECTION” (AuXin Surgery SA, priority 2013, published 2021).
Read-outs that look alike come from different tables or passages of the source.

How the values were obtained:
[1] = Stability study of Mesna powder in the presence of riboflavin 5′-phosphate sodium (weight, dry oven); format: physicochemical
Method: About 1.5 g of Mesna powder was accurately weighed, without or with 7 mg or 15 mg of riboflavin 5′-phosphate sodium, and placed in a dry oven at 20° C. for 1 month to test its stability (Table 6).

[2] = Stability study of solutions comprising Mesna and riboflavin 5′-phosphate sodium (HPLC quantification of Mesna); format: physicochemical; conditions: 4° C. and 20° C.
Method: A stability study was conducted for the purpose of evaluating a possible interaction between riboflavin 5′-phosphate sodium, a dye accepted for parenteral use in humans, and Mesna. […]
In order to validate the obtained data, a reference corresponding to a reconstituted solution of Mesna without riboflavin 5′-phosphate sodium was analyzed at the same time as the samples comprising riboflavin 5′-phosphate sodium (Table 5).

[3] = rats, intraduodenal administration compared with i.v.; cited from earlier work
[4] = cited from earlier work

## O=S(=O)([O-])CCS.[Na+] [1.5 g Mesna powder]
[1]; after 1 month in dry oven at 20° C., ± standard deviation
  W1 = weight after 1 month in dry oven at 20° C.: 4.807 ± 0.016 g
[1]; before placement in dry oven, ± standard deviation
  W0 = weight before placement in dry oven at 20° C.: 4.907 ± 0.038 g

## O=S(=O)([O-])CCS.[Na+] [Mesna, sodium 2-mercaptoethanesulfonate]
[2]; 0.23 mg/mL and 0.50 mg/mL RF5′PNa, before the 24 h point
  variations in Mesna content after addition of riboflavin 5′-phosphate sodium: ≤ 1%
[1]; dry form, 1 month at 20° C.
  stability of Mesna in dry form in the presence of riboflavin 5′-phosphate sodium (conclusion): stable

## CN(C)c1ccc2nc3ccc(=[N+](C)C)cc-3sc2c1 [methylene blue]
[3]
  tissue concentrations after intraduodenal versus i.v. administration: higher concentrations in intestinal wall and liver but lower concentrations in whole blood and brain
[4]; 100 mg methylene blue with and without mesna
  effect of co-administration of mesna on pharmacokinetics: did not alter the pharmacokinetics
[4]; i.v. administration (second value of the pair)
  urinary excretion of methylene blue and its leucoform: 28 % dose
[4]; oral administration (first value of the pair)
  urinary excretion of methylene blue and its leucoform: 18 % dose
[4]; whole blood, i.v. administration of 100 mg, seven volunteers
  estimated terminal half-life: 5.25 h
[4]; whole blood, i.v. administration of 100 mg
  area under the concentration-time curve: 137 nmol/min/mL
[4]; whole blood, oral administration of 100 mg
  area under the concentration-time curve: 9 nmol/min/mL

## Cc1cc2nc3c(=O)[nH]c(=O)nc-3n(C[C@H](O)[C@H](O)[C@H](O)COP(=O)([O-])O)c2cc1C.[Na+] [riboflavin 5′-phosphate sodium]
[2]; phosphate buffer, 1 h and 24 h
  interaction of riboflavin 5′-phosphate sodium with Mesna in solution (conclusion): does not interfere with or degrade Mesna
